pIC50, pKi: −log10 of the molar value. One block for each compound: values may come before it.
Assays:
[1] = target: T1, Lysine-specific demethylase 4E (Homo sapiens, UniProt B2RXH2)
T1 sequence (B2RXH2 whole entry): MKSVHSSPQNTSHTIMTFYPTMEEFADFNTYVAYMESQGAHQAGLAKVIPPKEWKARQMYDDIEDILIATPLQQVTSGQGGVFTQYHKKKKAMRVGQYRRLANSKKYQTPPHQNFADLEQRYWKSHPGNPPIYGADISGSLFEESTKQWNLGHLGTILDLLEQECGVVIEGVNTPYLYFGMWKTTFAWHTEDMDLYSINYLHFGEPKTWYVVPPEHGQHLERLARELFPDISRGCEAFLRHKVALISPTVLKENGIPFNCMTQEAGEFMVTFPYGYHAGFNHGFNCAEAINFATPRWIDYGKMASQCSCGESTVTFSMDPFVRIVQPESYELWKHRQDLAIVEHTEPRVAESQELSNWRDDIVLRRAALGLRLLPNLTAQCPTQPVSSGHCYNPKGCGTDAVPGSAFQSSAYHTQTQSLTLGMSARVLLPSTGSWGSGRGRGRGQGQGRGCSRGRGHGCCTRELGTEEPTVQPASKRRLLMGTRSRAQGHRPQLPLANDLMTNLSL

[2] = target: T1, Lysine-specific demethylase 4E; remark: listed apart in the source
[3] = target: Hypoxia-inducible factor 1-alpha inhibitor (Homo sapiens, UniProt Q9NWT6); test: Inhibition of asparaginyl hydroxylase factor-inhibiting-HIF
Hypoxia-inducible factor 1-alpha inhibitor, sequence (Q9NWT6 whole entry): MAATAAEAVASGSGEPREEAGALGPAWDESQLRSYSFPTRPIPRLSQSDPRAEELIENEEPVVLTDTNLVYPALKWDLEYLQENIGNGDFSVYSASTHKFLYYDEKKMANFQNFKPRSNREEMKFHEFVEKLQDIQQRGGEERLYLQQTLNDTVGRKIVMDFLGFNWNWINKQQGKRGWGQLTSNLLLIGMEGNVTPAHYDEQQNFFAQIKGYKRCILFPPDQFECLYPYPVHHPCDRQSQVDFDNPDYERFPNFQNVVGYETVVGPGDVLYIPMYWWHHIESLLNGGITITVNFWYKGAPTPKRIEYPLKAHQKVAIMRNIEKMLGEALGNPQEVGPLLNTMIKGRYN

[4] = target: Egl nine homolog 1 (Homo sapiens, UniProt Q9GZT9); test: Inhibition of human PHD2
Egl nine homolog 1, sequence (Q9GZT9 whole entry): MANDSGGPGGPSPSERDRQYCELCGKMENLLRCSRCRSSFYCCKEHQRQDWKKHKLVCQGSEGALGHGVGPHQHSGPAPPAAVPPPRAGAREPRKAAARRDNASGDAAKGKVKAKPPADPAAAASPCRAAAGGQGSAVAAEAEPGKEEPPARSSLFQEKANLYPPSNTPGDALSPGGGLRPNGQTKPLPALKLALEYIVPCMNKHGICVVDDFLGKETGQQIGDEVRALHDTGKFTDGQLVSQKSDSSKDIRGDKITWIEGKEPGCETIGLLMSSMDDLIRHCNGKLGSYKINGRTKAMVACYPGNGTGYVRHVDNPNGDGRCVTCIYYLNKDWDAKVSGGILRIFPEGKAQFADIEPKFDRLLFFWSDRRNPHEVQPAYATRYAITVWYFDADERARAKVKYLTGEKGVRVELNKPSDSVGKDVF

[5] = target: T1, Lysine-specific demethylase 4E; remark: listed apart in the source
[6] = target: T1, Lysine-specific demethylase 4E; remark: listed apart in the source
[7] = target: T1, Lysine-specific demethylase 4E; remark: listed apart in the source
[8] = target: Lysine-specific histone demethylase 1A (Homo sapiens, UniProt O60341)
[9] = target: T1, Lysine-specific demethylase 4E; test: Uncompetitive inhibition of JMJD2E relative to alpha-ketoglutarate

- pIC50 [1]: 5.32
SMILES: O=C(NO)c1cccc(O)c1

- pIC50 [2]: 5.30
SMILES: O=C(O)C(=O)N[C@H](Cc1ccc(OS(=O)(=O)c2ccc(F)cc2)cc1)C(=O)O

- pKi [3]: 4.08
- pIC50 [4]: < 3.00
SMILES: O=C(O)C(=O)N[C@H](CCc1ccccc1)C(=O)O

- pIC50 [2]: 3.70
SMILES: O=C(O)C(=O)N[C@H](CSCc1ccccc1)C(=O)O

SMILES: O=c1cc(-c2ccccc2)oc2cc(O)c(O)c(O)c12 [BAICALEIN]
- pIC50 [5]: 5.52
- pKi [6]: 5.36

- pIC50 [2]: 3.70
SMILES: COc1ccccc1CSC[C@@H](NC(=O)C(=O)O)C(=O)O

- pIC50 [7]: 5.27
SMILES: O=C(O)C(=O)N[C@H](Cc1ccc(OS(=O)(=O)c2ccc(Br)cc2)cc1)C(=O)O

SMILES: CC(C)COc1ccc(Cl)cc1C1CC1N (stereo not given)
- pIC50 [8]: 5.05

- pKi [9]: 5.70
SMILES: C[C@@](Cc1ccc(O)c(O)c1)(NN)C(=O)O [CARBIDOPA]

SMILES: CC1(C)CCC2=C(O1)c1ccccc1C(=O)C2=O [LAPACHONE]
- pIC50 [5]: 5.52
- pKi [6]: 5.45

- pIC50 [2]: 5.30
SMILES: CC(C)(C)c1ccc(S(=O)(=O)Oc2ccc(C[C@@H](NC(=O)C(=O)O)C(=O)O)cc2)cc1

- pKi [6]: 5.72
SMILES: Oc1ccc(C2CNCCc3c2cc(O)c(O)c3Cl)cc1 (stereo not given) [FENOLDOPAM]

Source: ChEMBL document CHEMBL1795231, “Inhibitors of histone demethylases” (Bioorg Med Chem, 2011)
